Source: PubChem BioAssay AID1259407 (Chemical Carcinogenesis Research Information System (CCRIS), 2018)
The source made the active and inactive calls. The rule behind the calls is not given here.

Tested on: CCRIS mutagenicity, Ames/micronucleus/aberration tests
Assay: CCRIS mutagenicity studies
[1] = Test System: AMES SALMONELLA TYPHIMURIUM, Strain/Indicator: TA98, Metabolic Activation: NONE, Method: PREINCUBATION
[2] = Test System: AMES SALMONELLA TYPHIMURIUM, Strain/Indicator: TA100, Metabolic Activation: NONE, Method: PREINCUBATION

Cc1ccc(S(=O)(=O)O)cc1C
mutagenic call (Test System: AMES SALMONELLA TYPHIMURIUM, Strain/Indicator: TA98, Metabolic Activation: HAMSTER LIVER S-9, AROCLOR 1254 (10%), Method: PREINCUBATION): inactive; negative | mutagenic call (Test System: AMES SALMONELLA TYPHIMURIUM, Strain/Indicator: TA98, Metabolic Activation: HAMSTER, LIVER, S-9, AROCLOR 1254 (10%), Method: PREINCUBATION): inactive; negative | mutagenic call [1]: inactive; negative | mutagenic call (Test System: AMES SALMONELLA TYPHIMURIUM, Strain/Indicator: TA98, Metabolic Activation: RAT LIVER S-9, AROCLOR 1254 (10%), Method: PREINCUBATION): inactive; negative | mutagenic call (Test System: AMES SALMONELLA TYPHIMURIUM, Strain/Indicator: TA98, Metabolic Activation: RAT, LIVER, S-9, AROCLOR 1254 (10%), Method: PREINCUBATION): inactive; negative | mutagenic call (Test System: AMES SALMONELLA TYPHIMURIUM, Strain/Indicator: TA100, Metabolic Activation: HAMSTER LIVER S-9, AROCLOR 1254 (10%), Method: PREINCUBATION): inactive; negative | mutagenic call (Test System: AMES SALMONELLA TYPHIMURIUM, Strain/Indicator: TA100, Metabolic Activation: HAMSTER, LIVER, S-9, AROCLOR 1254 (10%), Method: PREINCUBATION): inactive; negative | mutagenic call [2]: inactive; negative | mutagenic call (Test System: AMES SALMONELLA TYPHIMURIUM, Strain/Indicator: TA100, Metabolic Activation: RAT LIVER S-9, AROCLOR 1254 (10%), Method: PREINCUBATION): inactive; negative | mutagenic call (Test System: AMES SALMONELLA TYPHIMURIUM, Strain/Indicator: TA100, Metabolic Activation: RAT, LIVER, S-9, AROCLOR 1254 (10%), Method: PREINCUBATION): inactive; negative | mutagenic call (Test System: AMES SALMONELLA TYPHIMURIUM, Strain/Indicator: TA1535, Metabolic Activation: HAMSTER LIVER S-9, AROCLOR 1254 (10%), Method: PREINCUBATION): inactive; negative | mutagenic call (Test System: AMES SALMONELLA TYPHIMURIUM, Strain/Indicator: TA1535, Metabolic Activation: HAMSTER, LIVER, S-9, AROCLOR 1254 (10%), Method: PREINCUBATION): inactive; negative | mutagenic call (Test System: AMES SALMONELLA TYPHIMURIUM, Strain/Indicator: TA1535, Metabolic Activation: NONE, Method: PREINCUBATION): inactive; negative | mutagenic call (Test System: AMES SALMONELLA TYPHIMURIUM, Strain/Indicator: TA1535, Metabolic Activation: RAT LIVER S-9, AROCLOR 1254 (10%), Method: PREINCUBATION): inactive; negative | mutagenic call (Test System: AMES SALMONELLA TYPHIMURIUM, Strain/Indicator: TA1535, Metabolic Activation: RAT, LIVER, S-9, AROCLOR 1254 (10%), Method: PREINCUBATION): inactive; negative | mutagenic call (Test System: AMES SALMONELLA TYPHIMURIUM, Strain/Indicator: TA1537, Metabolic Activation: HAMSTER LIVER S-9, AROCLOR 1254 (10%), Method: PREINCUBATION): inactive; negative | mutagenic call (Test System: AMES SALMONELLA TYPHIMURIUM, Strain/Indicator: TA1537, Metabolic Activation: HAMSTER, LIVER, S-9, AROCLOR 1254 (10%), Method: PREINCUBATION): inactive; negative | mutagenic call (Test System: AMES SALMONELLA TYPHIMURIUM, Strain/Indicator: TA1537, Metabolic Activation: NONE, Method: PREINCUBATION): inactive; negative | mutagenic call (Test System: AMES SALMONELLA TYPHIMURIUM, Strain/Indicator: TA1537, Metabolic Activation: RAT LIVER S-9, AROCLOR 1254 (10%), Method: PREINCUBATION): inactive; negative | mutagenic call (Test System: AMES SALMONELLA TYPHIMURIUM, Strain/Indicator: TA1537, Metabolic Activation: RAT, LIVER, S-9, AROCLOR 1254 (10%), Method: PREINCUBATION): inactive; negative | mutagenic call (Test System: MOUSE LYMPHOMA, Strain/Indicator: L5178Y (TK+/TK-), Metabolic Activation: NONE, Method: SUSPENSION/PLATE): inactive; negative

Cc1cccc(Nc2cc(Cl)nc(SCC(=O)O)n2)c1C
mutagenic call (Test System: AMES SALMONELLA TYPHIMURIUM, Strain/Indicator: TA98, Metabolic Activation: NONE): inactive; negative | mutagenic call (Test System: AMES SALMONELLA TYPHIMURIUM, Strain/Indicator: TA98, Metabolic Activation: RAT, LIVER, S-9, AROCLOR 1254): inactive; negative | mutagenic call (Test System: AMES SALMONELLA TYPHIMURIUM, Strain/Indicator: TA102, Metabolic Activation: NONE): inactive; negative | mutagenic call (Test System: AMES SALMONELLA TYPHIMURIUM, Strain/Indicator: TA102, Metabolic Activation: RAT, LIVER, S-9, AROCLOR 1254): inactive; negative | mutagenic call (Test System: AMES SALMONELLA TYPHIMURIUM, Strain/Indicator: TA104, Metabolic Activation: NONE): inactive; negative | mutagenic call (Test System: AMES SALMONELLA TYPHIMURIUM, Strain/Indicator: TA104, Metabolic Activation: RAT, LIVER, S-9, AROCLOR 1254): inactive; negative | mutagenic call (Test System: UDS RAT HEPATOCYTES, Strain/Indicator: BROMODEOXYURIDINE INCORP, Metabolic Activation: NONE): active; positive | mutagenic call (Test System: UDS RAT HEPATOCYTES, Strain/Indicator: BROMODEOXYURIDINE INCORP, Metabolic Activation: NONE, Method: FLOW CYTOMETRIC ANALYSIS): inactive; negative | mutagenic call (Test System: UDS RAT HEPATOCYTES, Strain/Indicator: THY INCORP, Metabolic Activation: NONE, Method: AUTORADIOGRAPHY): inactive; negative | mutagenic call (Test System: UDS RAT HEPATOCYTES, Strain/Indicator: THY INCORP, Metabolic Activation: NONE, Method: LIQUID SCINTILLATION COUNTING): active; positive

O=[N+]([O-])c1ccc2c(CCO)c[nH]c2c1
mutagenic call (Test System: AMES SALMONELLA TYPHIMURIUM, Strain/Indicator: TA97A, Metabolic Activation: NONE, Method: STANDARD PLATE): active; positive | mutagenic call (Test System: AMES SALMONELLA TYPHIMURIUM, Strain/Indicator: TA98(1,8-DNP6), Metabolic Activation: NONE, Method: STANDARD PLATE): active; positive | mutagenic call (Test System: AMES SALMONELLA TYPHIMURIUM, Strain/Indicator: TA98(NR), Metabolic Activation: NONE, Method: STANDARD PLATE): active; positive | mutagenic call (Test System: AMES SALMONELLA TYPHIMURIUM, Strain/Indicator: TA98, Metabolic Activation: NONE, Method: SEM (1.1) 100-2000 NM (TEST MATERIAL SOLVENT: DMSO) 100-2000 N 2000 N): active; positive | mutagenic call (Test System: AMES SALMONELLA TYPHIMURIUM, Strain/Indicator: TA100, Metabolic Activation: NONE, Method: STANDARD PLATE): active; positive | mutagenic call (Test System: AMES SALMONELLA TYPHIMURIUM, Strain/Indicator: TA1535, Metabolic Activation: NONE, Method: STANDARD PLATE): inactive; negative | mutagenic call (Test System: AMES SALMONELLA TYPHIMURIUM, Strain/Indicator: TA1537, Metabolic Activation: NONE, Method: STANDARD PLATE): active; positive

CC(=O)N(N=O)c1ccc2c(c1)Cc1ccccc1-2
mutagenic call (Test System: CHINESE HAMSTER OVARY, Strain/Indicator: CHO/6-THIOGUANINE (HGPRT), Metabolic Activation: NONE, Method: STANDARD PLATE): active; positive | mutagenic call (Test System: CHINESE HAMSTER OVARY, Strain/Indicator: CHO/OUABAIN (HGPRT), Metabolic Activation: NONE, Method: STANDARD PLATE): active; positive

Fc1ccc2ccc3cccnc3c2c1
mutagenic call (Test System: AMES SALMONELLA TYPHIMURIUM, Strain/Indicator: TA100, Metabolic Activation: RAT, LIVER, S-9, PHENOBARBITAL AND 5,6-BENZOFLAVONE, Method: PREINCUBATION): active; positive

O=C(O)c1cc(Cl)cc(Cl)c1
mutagenic call [1]: inactive; negative | mutagenic call (Test System: AMES SALMONELLA TYPHIMURIUM, Strain/Indicator: TA98, Metabolic Activation: RAT LIVER S-9, PCB, Method: PREINCUBATION): inactive; negative | mutagenic call [2]: inactive; negative | mutagenic call (Test System: AMES SALMONELLA TYPHIMURIUM, Strain/Indicator: TA100, Metabolic Activation: RAT LIVER S-9, PCB, Method: PREINCUBATION): inactive; negative | mutagenic call (Test System: AMES SALMONELLA TYPHIMURIUM, Strain/Indicator: TA104, Metabolic Activation: NONE, Method: PREINCUBATION): inactive; negative | mutagenic call (Test System: AMES SALMONELLA TYPHIMURIUM, Strain/Indicator: TA104, Metabolic Activation: RAT LIVER S-9, PCB, Method: PREINCUBATION): inactive; negative | mutagenic call (Test System: E.COLI, Strain/Indicator: WP2 UVRA, Metabolic Activation: NONE, Method: PREINCUBATION): inactive; negative | mutagenic call (Test System: E.COLI, Strain/Indicator: WP2 UVRA, Metabolic Activation: RAT LIVER S-9, PCB, Method: PREINCUBATION): inactive; negative

COc1ccc2c(c1O)C(=O)c1ccccc1C2=O
mutagenic call [1]: inactive; negative | mutagenic call (Test System: AMES SALMONELLA TYPHIMURIUM, Strain/Indicator: TA98, Metabolic Activation: RAT, LIVER, S-9, PCB, Method: PREINCUBATION): inactive; negative | mutagenic call [2]: inactive; negative | mutagenic call (Test System: AMES SALMONELLA TYPHIMURIUM, Strain/Indicator: TA100, Metabolic Activation: RAT, LIVER, S-9, PCB, Method: PREINCUBATION): inactive; negative

COc1cccc2c1C1(C)OOC1(C)O2 (configuration not stated)
mutagenic call [2]: active; positive

COc1c(C(=O)O)c(=O)[nH]c2ccccc12
mutagenic call (Test System: AMES SALMONELLA TYPHIMURIUM, Strain/Indicator: TA98, Metabolic Activation: NONE, Method: STANDARD PLATE): inactive; negative | mutagenic call (Test System: AMES SALMONELLA TYPHIMURIUM, Strain/Indicator: TA98, Metabolic Activation: RAT LIVER S-9, PHENOBARTITAL, Method: STANDARD PLATE): inactive; negative

CCCCCOC(=O)C=Cc1ccc([N+](=O)[O-])o1
mutagenic call [1]: active; positive
